{
  "source": "paper PMC8826726",
  "about": "“Selective Toxicity of Secondary Metabolites from the Entomopathogenic Bacterium Photorhabdus luminescens sonorensis against Selected Plant Parasitic Nematodes of the Tylenchina Suborder” (Microbiology Spectrum, 2022)",
  "key": {"[1]": {"system": "Tylenchulus semipenetrans J2 juveniles", "experiment": "microbe, parasite or virus in culture", "details": "Tylenchulus semipenetrans, 24 h", "description": "(§1) Only soil inhabiting (free-living or infective) stages of target and non-target nematode species were considered in the present study. All nematode cultures (except T. semipenetrans) were maintained in the Stock laboratory (University of Arizona). M. incognita was reared in planta using susceptible tomato plants (cv. Roma VF; seedlings with five or six true leaves; courtesy of Dr. J. Brown, University of Arizona). Eggs of M. incognita were extracted from infected tomato plant roots, and J2 were collected after hatching, following the procedures of Atamian et al. ([50]). T. semipenetrans was isolated from infested lemon orchards at the Yuma Agricultural Center, University of Arizona (Yuma, AZ, USA). Eggs of T. semipenetrans were extracted from infected lemon tree roots using the procedures of El-Borai et al. ([51]), and J2 were collected using the same procedure as that described for M. incognita.\n(§2) Twelve-well tissue culture plates were used as the experimental arena. For each of the tested nematode species, an inoculum of 100 nematodes, suspended in 20 μL distilled water, was added to each well. […] For PPA (Enamine) and indole (Alfa Aesar), 13 incremental concentrations were tested ranging from 10 to 400 μg/mL in 1 mL of distilled water (DMSO ≤ 1%; vol/vol). […] Distilled water with 1% DMSO was used as the negative control. To measure the combined nematicidal effects of the three SMs, equal concentrations of two or three SMs were mixed in 1:1 or 1:1:1 mixture. For example, a 20 μg/mL solution of a two-SM mixture contained 20 μg from metabolite A and 20 μg metabolite B, dissolved in 1 mL distilled water. Individual or combined SMs from 10 μg/mL to 200 μg/mL (in 20 μg/ml increments) were prepared in distilled water (DMSO ≤ 1%; vol/vol) and used for the bioassays.\n(§3) The well plates were covered with their lids and incubated at 25°C in the dark. For the targeted nematode species, nematicidal activity was recorded at 24 h, 48 h, and 72 h after initial exposure to the individual SMs. For the non-target species, data were only recorded at 24 h after initial exposure to the individual SMs. For SM mixtures, mortality was recorded 24 h after initial exposure of the targeted nematode species. Nematodes were probed with a needle to assess if they were alive, dead, or paralyzed. […] Those nematodes that resumed activity upon probing were considered to suffer from temporary paralysis (impaired motility). Paralyzed nematodes were rinsed at least three times in distilled water and held for an additional 24 h to check for their recovery from temporarily paralysis. […] Experiments were repeated at least three times per treatment for each concentration tested.\n(§4) For the toxicity data visualization, the relationship between percent mortality or temporary paralysis and metabolite concentration were described by a sigmoidal curve, which was fitted by the logistical function using the statistical software package SigmaPlot for Windows, version 14.0 (Systat Software Inc.). […] Concentration-response data of single metabolites or SM mixtures were pooled for each concentration and subjected to probit regression analysis using the Polo Plus program (LeOra Software). The LC or EC values, along with the corresponding 95% confidence intervals, were estimated for each single SM or SM mixture at each exposure time, depending on the experimental setting."}, "[2]": {"system": "Meloidogyne incognita J2 juveniles", "experiment": "microbe, parasite or virus in culture", "details": "Meloidogyne incognita, 24 h", "description": "as §1, §2, §3, §4"}, "R. blumi": {"system": "R. blumi", "experiment": "in vitro", "details": "data not shown", "description": "(§5) The non-target species, C. elegans wild-type strain N2 Bristol (courtesy of Dr. G.L. Sutphin, University of Arizona) and Rhabditis blumi DF5010 (Caenorhabditis Genetics Center, University of MN, USA) were maintained in vitro in nematode growth medium (NGM) agar plates seeded with Escherichia coli (Migula) Castellani and Chalmers, strain OP-50, as described previously ([52]). Mixed juveniles and hermaphrodites (5 to 6 days old) were collected from the culture plates prior to the bioassays. Infective third-stage juveniles (IJs) of three non-target entomopathogenic nematode species (H. sonorensis Caborca strain, H. bacteriophora TT01 strain, and Steinernema carpocapsae All strain) were also maintained by rearing them in vivo using wax moth larvae (Galleria mellonella) as the host, according to procedures described previously ([53]), and collected for bioassays within 2 to 4 days of their emergence from nematode-infected cadavers. Nematode population density (number of nematodes per ml) was standardized prior to setting up well-plate bioassays, by adjusting each nematode suspension to a concentration of 100 nematodes in 20 μL of distilled water.\nas §2, §3, §4"}, "C. elegans": {"system": "C. elegans", "experiment": "in vitro", "details": "data not shown", "description": "as §5, §2, §3, §4"}},
  "data": [
    {"smiles": "c1ccc2[nH]ccc2c1", "note": "[Indole, indole]", "values": [
      {"measurement": "LC50", "setting": "[1]", "result": 388, "unit": "mg/L"},
      {"measurement": "LC50", "setting": "[2]", "result": 307, "unit": "mg/L"},
      {"measurement": "Concentrations showing nematicidal activity", "setting": "R. blumi", "result": "≥ 300", "unit": "µg/mL"},
      {"measurement": "Concentrations showing nematicidal activity", "setting": "C. elegans", "result": "≥ 300", "unit": "µg/mL"}
    ]}
  ]
}
